Measurements from US20100035822A1, “PROLINE-RICH PEPTIDES, PHARMACEUTICAL COMPOSITION, USE OF ONE OR MORE PEPTIDES AND METHOD OF TREATMENT” (priority 2006, published 2010).
Entries after “also recorded” stand apart in the source; their conditions may differ. Square brackets hold non-standard residues; d marks the D form. Ends that are not written are not given here. Peptide text beside a SMILES is read from it. pGlu = O=C1CC[C@@H](C(=O)O)N1

What was measured:
[1] = Determination of Z-pro metabolites in mice urine; assay type: in vivo, mouse; conditions: for Metabolites in the urine: mice, 0.91 mg/Kg intraperitoneally, urine collected after 24 hours, mass spectrometry
Protocol: In vivo hydrolysis of peptides SEQ ID NO 1, SEQ ID NO 4, SEQ ID NO 5, SEQ ID NO 8, and SEQ ID NO 15 was investigated in Swiss male mice weighing approximately 22-25 g, which had free access to food and water, and were kept under a light-dark cycle of 12 hour periods.
Groups of 10 mice were treated intraperitoneally with 0.91 mg/Kg of each proline rich oligopeptide per animal, diluted in 200 μl saline. Treated and control animals (not treated) were kept in metabolic cages, and their urine was collected after 24 hours. The urine was pre-purified in a reverse phase Sep-Pak C18 micro column (Waters), which had been previously equilibrated with solvent A (H2O/0.1% TFA). Samples were eluted with 60% solvent B (90% acetonitrile/10% solvent A), lyophilized, and resuspended in 1 ml deionized water to be centrifuged at 14.000 rpm for 5 minutes. The supernatant (500 μl) was fractionated in an analytic HPLC system. The gradient was 5-65% solvent B for 30 minutes, using a flow rate of 1 ml/min and monitoring at 214 nm. Fractions were lyophilized and ressuspended in acetonitrile/H2O (1:1), containing 0.2% formic acid, and were analyzed by mass spectrometry (Q-TOF-Pro). Urine fractions from control and treated animals were compared to determine the presence of metabolites originated from the peptides being tested.

[2] = system: SK-N-AS cells (human neuroblastoma); assay: Free intracellular Ca2+ concentration in SK-N-AS cells (fluo-3 AM, confocal microscopy); assay type: cell-based
Protocol: In these experiments the variation in free intracellular calcium [Ca^2+]i concentration was measured in SK-N-AS cells (human neuroblastoma, ATCC No. CRL-2137) after addition of 1 μmolar of peptides SEQ ID NO 1 or SEQ ID NO 8, or of 1 μmolar captopril. Cells were kept in DMEM (Dulbecco Modified Medium), supplemented with 10% fetal bovine serum (FBS) and 1% non-essential amino acids, at 5% CO2 atmosphere, at 37° C., and 95% relative humidity. Cells were treated with trypsin, and replicated at adequate cell concentrations.
Measurements of variation in the concentration of free [Ca^2+]i were performed with a confocal microscope LSM 510 (Zeiss, Jena, Germany), as described by Martins et al., (Martins et al., Neuronal differentiation of P19 embryonal carcinoma cells modulates kinin B2 receptor gene expression and function. J. Biol. Chem. 280: 19576-19586, 2005). Approximately 5×10^4 SK-N-AS cells were plated on 60 mm plates 24 hours prior to measurement, and then treated with 4 μM fluo-3 AM (Invitrogen Corporation) in 0.5% DMSO and 0.1% non-ionic surfactant pluronic acid F-127 for 30 minutes at 37° C. Cells were washed with DMEM containing 10% FBS, and transferred to defined medium (5 μg/ml insulin, 30 μg/ml transferrin, 20 μM ethanolamine, 30 nM sodium selenite, 1 μM sodium pyruvate, 1% non-essential amino acids, 1 mM glutamine, 100 μg/ml penicillin, 100 μg/ml streptomycin, 10 mM HEPES pH 7.4 in DMEM). The fluorescent fluo-3 AM was excited at 488 nm, and the fluorescence measured at 526 nm.
Variations in the [Ca^2+]i were measured in non-stimulated cells, and in cells stimulated with peptides SEQ ID NO 1 or SEQ ID NO 8, or with captopril (Sigma Aldrich). Increase of fluorescence was monitored for 2 minutes, and images were acquired in 256×256 pixels every second. At the end of each experiment, 5 μM ionophore (4-Br-A23187) were added, followed by 10 mM EGTA, or 20 μM digitonin to determine maximum and minimum fluorescence, Fmax and Fmin respectively, as described by Grynkiewicz et al., (1985).
Intracellular calcium concentrations [Ca^2+]i, related to fluorescence (F) values obtained after addition of peptides SEQ ID NO 1 or SEQ ID NO 8, were calculated with the equation: [Ca^2+]=Kd(F−Fmin)/(Fmax−F), assuming Kd=450 nM for fluo-3 AM (Hallett et al., 1990).

[3] = molecular target: T1, argininosuccinate synthase (AsS) (Mus musculus, UniProt P16460); assay: Potentiation of argininosuccinate synthase activity (phosphate generated from ATP); assay type: biochemical; conditions: AsS activated by SEQ ID NO 8
T1 construct: Cytosolic and membrane fractions of the renal extract (100 mg/ml total protein) were applied to separate columns; from tissue; host or cells: Balb-c mouse kidney, cytosolic and membrane fractions
T1 sequence (P16460 1-412): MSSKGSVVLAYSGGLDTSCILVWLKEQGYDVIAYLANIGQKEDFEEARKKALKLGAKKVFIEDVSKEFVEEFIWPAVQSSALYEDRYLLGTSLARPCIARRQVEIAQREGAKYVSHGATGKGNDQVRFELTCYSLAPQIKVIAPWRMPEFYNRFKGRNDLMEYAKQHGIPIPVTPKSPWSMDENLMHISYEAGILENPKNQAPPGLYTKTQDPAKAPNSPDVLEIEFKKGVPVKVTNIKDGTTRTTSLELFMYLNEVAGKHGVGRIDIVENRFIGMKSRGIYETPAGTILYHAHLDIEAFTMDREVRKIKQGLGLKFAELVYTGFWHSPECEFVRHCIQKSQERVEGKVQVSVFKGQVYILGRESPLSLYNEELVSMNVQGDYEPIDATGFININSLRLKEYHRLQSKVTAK
Protocol: Activation of the AsS enzyme of Example 3 by peptide SEQ ID NO 8 was quantified in vitro according to Hao et al. [Hao G., Xie L., Gross S. S. Argininosuccinate synthetase is reversibly inactivated by S-nitrosylation in vitro and in vivo. J. Biol. Chem., 279:36192-36200 (2004)]. This method is based on measuring the quantity of phosphate generated from ATP, when pyrophosphatase is added to the reaction medium. Since the activity of the pyrophosphatase relates directly to the enzymatic activity of the AsS, the quantity of generated pyrophosphate is a direct measurement of the AsS activity.
The AsS enzyme (1 μg) was added to the reaction mixture containing 20 mM Tris-HCl, pH 7.8, 2 mM ATP, 2 mM citrulline, 2 mM aspartate, 6 mM MgCl2, 20 mM KCl, and 0.2 units of pyrophosphatase in a final volume of 200 μL in 96 well microplates. Increasing quantities of the SEQ ID NO 8 peptide (0.5, 1 to 8 μM) were added, and samples were incubated at 37° C. for 60 minutes. The reaction was interrupted by the addition of 200 μL of ammonium molybdate buffer (10 mM ascorbic acid, 2.5 mM ammonium molybdate, 2% sulphuric acid). Resulting phosphate was determined in the samples by spectrophotometry (absorbance at 650 nm), using a standard curve obtained with inorganic phosphate.
The production rate of phosphate (enzymatic activity of the AsS) was activated up to approximately 2.5 fold upon addition of 2 μM peptide SEQ ID NO 8. […] Accessibility of endothelial and inducible nitric oxide synthase to the intracellular citrulline-arginine regeneration pathway. Biochem. Pharmacol. 69: 97-104, 2005].

[4] = Bioavailability / tissue distribution of 125I-labelled peptide in mice; assay type: in vivo, mouse
From the text: Peptide SEQ ID NO 8 was labeled with ^125I according to Greenwood and Hunter (Greenwood F C and Hunter W M. The preparation of ^125I-labelled human growth hormone of high specific radioactivity. J. Biochem., 89:114-123, 1963), with modifications [Biscayart P L, Paladini A C, Vita N, Roguin L P. Preparation of ^125I-labeled human growth hormone of high quality binding properties endowed with long-term stability. J. Immunoassay, 10, 37-56, 1989; Ribela et al., Protein Exp. Purif., 18(2):115-200, 2000). Under constant shaking, 5 μg of the synthetic SEQ ID NO 8 peptide in PBS were mixed with 1 mCi of ^125I, and 0.8 μg of chloramines T. After 5 minutes, 1 μg metabisulfite and 200 μg potassium iodine were added to finalize the labeling reaction. Purification of the labeled product was performed by reverse-phase chromatography in a disposable micro-column (Sep-Pak C18, Waters) as described by Christophe et al. [Christophe et al., The synthetic peptide trp-lys-tyr-met-val-met-NH2 specifically activates neutrophils through FPRL1/lipoxin A4 receptors and is an agonist for the orphan monocyte-expressed chemoattractant receptor FPRL2. J. Biol. Chem. 276: 21585-21593, 2001]. The reaction product was diluted in three volumes of destined water, and applied to the column that had been pre-treated with destined water. Potassium iodine (5 mM, 20 mL) was added, and the column was washed twice with 20 mL distilled water. The labeled peptide was eluted with 2 mL 100% methanol, and 5 μl aliquots were analyzed in the gamma radiation counter from Nuclear Chicago. […]
The animals were anesthetized after 1, 5, 15, 30, 45, 60, 120 and 180 min after injection, and killed by cervical dislocation, and organs (heart, spleen, liver, kidney, intestines, stomach, thyroid, testicles, and brain) were removed, flushed free of blood with 0.9% saline, and weighed. The radioactivity of each organ was determined in a gamma counter. […]
The dose percentage present in each organ was determined, using an administered dose standard. Radioactivity values were registered, given in dose percentage/mg of tissue.

<EKWAP [SEQ ID NO 1]
form in which the peptide is excreted in urine ([1]; mice injected intraperitoneally): exception
Metabolites in the urine [1]: <EKW
time from the peak until the [Ca2+]i plateau [2]: 20 s
change of intracellular [Ca2+]i ([2]; 1 μM): Increase
[Ca2+]i response peak ([2]; immediately after addition of the peptide): approximately 350 nM

CC[C@H](C)[C@H](NC(=O)[C@H](CCC(N)=O)NC(=O)[C@@H]1CCCN1C(=O)[C@H](CCCNC(=N)N)NC(=O)[C@@H]1CCCN1C(=O)[C@H](Cc1c[nH]c2ccccc12)NC(=O)[C@@H]1CCC(=O)N1)C(=O)N1CCC[C@H]1C(=O)N1CCC[C@H]1C(=O)O [SEQ ID NO 5, <EWPRPQIPP]
Metabolites in the urine ([1]; 0.91 mg/kg): <EWPRPQIP; also recorded: <EWPRP; also recorded: <EWPRPQIPP

CC[C@H](C)[C@H](NC(=O)[C@@H]1CCCN1C(=O)CNC(=O)[C@H](CC(=O)O)NC(=O)[C@@H]1CCC(=O)N1)C(=O)N1CCC[C@H]1C(=O)N1CCC[C@H]1C(=O)O [SEQ ID NO 4, <EDGPIPP] ([pGlu]DGPIPP-OH)
Metabolites in the urine [1]: <EDGPIPP

<EWGRPPGPPIPP [SEQ ID NO 14]
Metabolites in the urine [1]: <EWGRPPGPPIPP

CC(N)(CC(=O)O)C(=O)O (racemic) [MDLA, α-methyl-DL-aspartic acid, reference compound]
effect of the inhibitor on AsS activation by peptide SEQ ID NO 8 [3]: completely blocked; also recorded: completely inhibited

SEQ ID NO 8/^125I: synthetic oligopeptide SEQ ID NO 8 labeled with ^125I ([pGlu]NWPHPQIPP; also: 125I label, place not given here)
kidney concentration relative to other tissues per gram of tissue [4]: higher than 10 fold
share of the concentration of the injected dose remaining in the kidneys ([4]; kidney): approximately 15%
time the radioactivity remains in the kidneys ([4]; kidney): > 3 h
